Assay results published in patent publication US20120083522A1, “MODULATION OF INFLAMMATORY RESPONSES BY FACTOR XI” (Isis Pharmaceuitcals, inc., priority 2009, published 2012).
In the oligonucleotide strings, read from the 5' end, every base follows the letter of its sugar. An asterisk marks phosphorothioate; unmarked linkages are phosphodiester. Other units and linkages are bracketed, terminal groups are in braces. A string of capitals states the bases alone. e = 2'-O-(2-methoxyethyl) (MOE); [5mC] = 5-methylcytosine; d = 2'-deoxy (DNA)

Assays:
Assay type in all cases: in vivo
[1] = Tolerability in CD1 mice: liver function (Example 17); set-up: Albumin: unit not given here; details: plasma, 50 mg/kg s.c. twice a week
[2] = Tolerability in Sprague-Dawley rats: hematology assays (Example 19); details: 50 mg/kg s.c. twice per week for 6 weeks; for MCH / Hemoglobin / MCHC: title says % control
Text: (§1) Urine samples were taken before the start of treatment.

[3] = Tolerability in Sprague-Dawley rats: liver function (Example 19); details: plasma, 50 mg/kg s.c. twice per week for 6 weeks
Text: as §1

[4] = Tolerability in Sprague-Dawley rats: hematology assays (Example 19); details: 50 mg/kg s.c. twice per week for 6 weeks
[5] = Tolerability in CD1 mice: kidney function (Example 17); details: plasma, 50 mg/kg s.c. twice a week
Text: Results are presented in Tables 62 and 63, expressed in mg/dL.

[6] = Tolerability in Sprague-Dawley rats: kidney function (Example 19); details: Sprague-Dawley rats, plasma, 50 mg/kg s.c. twice per week for 6 weeks
Text: as §1

[7] = Tolerability in CD1 mice: hematology assays (Example 17); details: for lymphocyte count / monocyte count / neutrophil count: percent of total blood cell count; for HCT / MCH / MCHC / MCV / WBC count: blood, 50 mg/kg s.c. twice a week
Protocol: A control group of five mice was injected subcutaneously with PBS for 2 weeks. All experimental groups (i.e. ASO treated mice at 2, 4, 6 weeks) were compared to the control group (i.e. PBS, 2 weeks).
Blood obtained from all mice groups were sent to Antech Diagnostics for hematocrit (HCT), mean corpuscular volume (MCV), mean corpuscular hemoglobin (MCH), and mean corpuscular hemoglobin concentration (MCHC) measurements and analyses, as well as measurements of the various blood cells, such as WBC (neutrophils, lymphocytes, and monocytes), RBC, and platelets, and total hemoglobin content. Percentages given in the tables indicate the percent of total blood cell count.

ATGCCCTTCATGTCTAGGTC (all C 5-methyl, all phosphorothioate, sugars by position not given here; MOE gapmer) [ISIS 416826, 5-10-5 MOE gapmer]
ALT ([1]; 2 weeks): 182 IU/L
AST ([1]; 2 weeks): 274 IU/L
Albumin ([1]; 2 weeks): 3.3
Bilirubin ([1]; 2 weeks): 0.39 mg/dL
ALT ([1]; 4 weeks): 126 IU/L
AST ([1]; 4 weeks): 156 IU/L
Albumin ([1]; 4 weeks): 3.4
Bilirubin ([1]; 4 weeks): 0.20 mg/dL
ALT ([1]; 6 weeks): 1954 IU/L
AST ([1]; 6 weeks): 1411 IU/L
Albumin ([1]; 6 weeks): 3.4
Bilirubin ([1]; 6 weeks): 0.37 mg/dL
Lymphocytes [2]: 5%
MCH [2]: 3 pg
ALT [3]: 611 IU/L
AST [3]: 104 IU/L
Albumin [3]: 6 mg/dL
Bilirubin [3]: 115 mg/dL
Monocytes [4]: 7%
Neutrophils [4]: 30%
Platelets [4]: 11 10^3/μL
RBC [4]: 5 pL⁻¹
WBC [4]: 7 nL⁻¹
HCT ([4]; title says % control): 7%
Hemoglobin ([4]; title says % control): 7 g/dL
MCHC ([4]; title says % control): 4%
MCV ([4]; title says % control): 6 fL
BUN ([5]; 2 weeks): 24 mg/dL
creatinine ([5]; 2 weeks): 0.15 mg/dL
BUN ([5]; 4 weeks): 34 mg/dL
creatinine ([5]; 4 weeks): 0.20 mg/dL
BUN ([5]; 6 weeks): 27 mg/dL
creatinine ([5]; 6 weeks): 0.15 mg/dL
BUN [6]: 25 mg/dL
creatinine [6]: 6 mg/dL
RBC count ([7]; 2 weeks): 8 cells/pL
hemoglobin content ([7]; 2 weeks): 13.4 g/dL
platelet count ([7]; 2 weeks): 1498 cells/nL
lymphocyte count ([7]; 2 weeks): 70%
monocyte count ([7]; 2 weeks): 3%
neutrophil count ([7]; 2 weeks): 26%
RBC count ([7]; 4 weeks): 8 cells/pL
hemoglobin content ([7]; 4 weeks): 12.8 g/dL
platelet count ([7]; 4 weeks): 970 cells/nL
lymphocyte count ([7]; 4 weeks): 61%
monocyte count ([7]; 4 weeks): 5%
neutrophil count ([7]; 4 weeks): 33%
RBC count ([7]; 6 weeks): 7 cells/pL
hemoglobin content ([7]; 6 weeks): 11.0 g/dL
platelet count ([7]; 6 weeks): 645 cells/nL
lymphocyte count ([7]; 6 weeks): 67%
monocyte count ([7]; 6 weeks): 8%
neutrophil count ([7]; 6 weeks): 23%
HCT ([7]; 2 weeks): 47%
MCH ([7]; 2 weeks): 17 pg
MCHC ([7]; 2 weeks): 29%
MCV ([7]; 2 weeks): 56 fL
WBC count ([7]; 2 weeks): 5 cells/nL
HCT ([7]; 4 weeks): 41%
MCH ([7]; 4 weeks): 16 pg
MCHC ([7]; 4 weeks): 31%
MCV ([7]; 4 weeks): 52 fL
WBC count ([7]; 4 weeks): 6 cells/nL
HCT ([7]; 6 weeks): 37%
MCH ([7]; 6 weeks): 16 pg
MCHC ([7]; 6 weeks): 30%
MCV ([7]; 6 weeks): 53 fL
WBC count ([7]; 6 weeks): 8 cells/nL

GCCCTTCATGTCTAGGTCCA [ISIS 416825] (eG*e[5mC]*e[5mC]*e[5mC]*eT*dT*d[5mC]*dA*dT*dG*dT*d[5mC]*dT*dA*dG*eG*eT*e[5mC]*e[5mC]*eA) [5-10-5 MOE gapmer]
ALT ([1]; 2 weeks, 50 mg/kg): 64 IU/L
AST ([1]; 2 weeks, 50 mg/kg): 82 IU/L
Albumin ([1]; 2 weeks, 50 mg/kg): 3.6
Bilirubin ([1]; 2 weeks, 50 mg/kg): 0.41 mg/dL
ALT ([1]; 4 weeks, 50 mg/kg): 314 IU/L
AST ([1]; 4 weeks, 50 mg/kg): 239 IU/L
Albumin ([1]; 4 weeks, 50 mg/kg): 3.4
Bilirubin ([1]; 4 weeks, 50 mg/kg): 0.69 mg/dL
ALT ([1]; 6 weeks, 50 mg/kg): 507 IU/L
AST ([1]; 6 weeks, 50 mg/kg): 301 IU/L
Albumin ([1]; 6 weeks, 50 mg/kg): 3.5
Bilirubin ([1]; 6 weeks, 50 mg/kg): 0.29 mg/dL
Lymphocytes ([2]; 50 mg/kg): 3%
Monocytes ([2]; 50 mg/kg): 15%
Neutrophils ([2]; 50 mg/kg): 25%
RBC ([2]; 50 mg/kg): 2 pL⁻¹
MCH [2]: 2 pg
Hemoglobin ([2]; 50 mg/kg): 2 g/dL
MCHC ([2]; 50 mg/kg): 4%
ALT ([3]; 50 mg/kg): 89 IU/L
AST ([3]; 50 mg/kg): 17 IU/L
Albumin ([3]; 50 mg/kg): 2 mg/dL
Bilirubin ([3]; 50 mg/kg): 4 mg/dL
Platelets ([4]; 50 mg/kg): 6 10^3/μL
WBC ([4]; 50 mg/kg): 22 nL⁻¹
HCT ([4]; title says % control, 50 mg/kg): 2%
MCV ([4]; title says % control, 50 mg/kg): 4 fL
BUN ([5]; 2 weeks, 50 mg/kg): 29 mg/dL
creatinine ([5]; 2 weeks, 50 mg/kg): 0.14 mg/dL
BUN ([5]; 4 weeks, 50 mg/kg): 35 mg/dL
creatinine ([5]; 4 weeks, 50 mg/kg): 0.21 mg/dL
creatinine ([5]; 6 weeks): 0.17 mg/dL
BUN ([5]; 6 weeks, 50 mg/kg): 31 mg/dL
BUN ([6]; 50 mg/kg): 7 mg/dL
creatinine ([6]; 50 mg/kg): 17 mg/dL
RBC count ([7]; 2 weeks): 9 cells/pL
hemoglobin content ([7]; 2 weeks): 14.5 g/dL
platelet count ([7]; 2 weeks): 1689 cells/nL
lymphocyte count ([7]; 2 weeks): 82%
monocyte count ([7]; 2 weeks): 2%
neutrophil count ([7]; 2 weeks): 15%
RBC count ([7]; 4 weeks): 9 cells/pL
hemoglobin content ([7]; 4 weeks): 14.1 g/dL
platelet count ([7]; 4 weeks): 1229 cells/nL
lymphocyte count ([7]; 4 weeks): 53%
monocyte count ([7]; 4 weeks): 5%
neutrophil count ([7]; 4 weeks): 43%
RBC count ([7]; 6 weeks): 8 cells/pL
hemoglobin content ([7]; 6 weeks): 12.1 g/dL
platelet count ([7]; 6 weeks): 942 cells/nL
lymphocyte count ([7]; 6 weeks): 71%
monocyte count ([7]; 6 weeks): 4%
neutrophil count ([7]; 6 weeks): 23%
HCT ([7]; 2 weeks, 50 mg/kg): 49%
MCH ([7]; 2 weeks, 50 mg/kg): 17 pg
MCHC ([7]; 2 weeks, 50 mg/kg): 29%
MCV ([7]; 2 weeks, 50 mg/kg): 58 fL
WBC count ([7]; 2 weeks, 50 mg/kg): 8 cells/nL
MCH ([7]; 4 weeks): 16 pg
WBC count ([7]; 4 weeks): 8 cells/nL
HCT ([7]; 4 weeks, 50 mg/kg): 46%
MCHC ([7]; 4 weeks, 50 mg/kg): 31%
MCV ([7]; 4 weeks, 50 mg/kg): 53 fL
HCT ([7]; 6 weeks, 50 mg/kg): 40%
MCH ([7]; 6 weeks, 50 mg/kg): 15 pg
MCHC ([7]; 6 weeks, 50 mg/kg): 31%
MCV ([7]; 6 weeks, 50 mg/kg): 51 fL
WBC count ([7]; 6 weeks, 50 mg/kg): 6 cells/nL

GCCCTTCATGTCTAGGTCCA [ISIS 416892] (eG*e[5mC]*e[5mC]*d[5mC]*dT*dT*d[5mC]*dA*dT*dG*dT*d[5mC]*dT*dA*dG*dG*dT*e[5mC]*e[5mC]*eA) [3-14-3 MOE gapmer]
ALT ([1]; 2 weeks, 50 mg/kg): 66 IU/L
AST ([1]; 2 weeks, 50 mg/kg): 121 IU/L
Albumin ([1]; 2 weeks, 50 mg/kg): 3.2
Bilirubin ([1]; 2 weeks, 50 mg/kg): 0.38 mg/dL
ALT ([1]; 4 weeks, 50 mg/kg): 1526 IU/L
AST ([1]; 4 weeks, 50 mg/kg): 1347 IU/L
Albumin ([1]; 4 weeks, 50 mg/kg): 4.0
Bilirubin ([1]; 4 weeks, 50 mg/kg): 2.99 mg/dL
ALT ([1]; 6 weeks, 50 mg/kg): 1939 IU/L
AST ([1]; 6 weeks, 50 mg/kg): 1443 IU/L
Albumin ([1]; 6 weeks, 50 mg/kg): 4.4
Bilirubin ([1]; 6 weeks, 50 mg/kg): 0.50 mg/dL
Lymphocytes ([2]; 50 mg/kg): 18%
Monocytes ([2]; 50 mg/kg): 58%
Neutrophils ([2]; 50 mg/kg): 92%
RBC ([2]; 50 mg/kg): 12 pL⁻¹
MCH [2]: 2 pg
Hemoglobin ([2]; 50 mg/kg): 14 g/dL
MCHC ([2]; 50 mg/kg): 0%
ALT ([3]; 50 mg/kg): 113 IU/L
AST ([3]; 50 mg/kg): 183 IU/L
Albumin ([3]; 50 mg/kg): 8 mg/dL
Bilirubin ([3]; 50 mg/kg): 1 mg/dL
Platelets ([4]; 50 mg/kg): 66 10^3/μL
WBC ([4]; 50 mg/kg): 68 nL⁻¹
HCT ([4]; title says % control, 50 mg/kg): 13%
MCV ([4]; title says % control, 50 mg/kg): 1 fL
BUN ([5]; 2 weeks, 50 mg/kg): 19 mg/dL
creatinine ([5]; 2 weeks, 50 mg/kg): 0.11 mg/dL
BUN ([5]; 4 weeks, 50 mg/kg): 28 mg/dL
creatinine ([5]; 4 weeks, 50 mg/kg): 0.20 mg/dL
creatinine ([5]; 6 weeks): 0.17 mg/dL
BUN ([5]; 6 weeks, 50 mg/kg): 23 mg/dL
BUN ([6]; 50 mg/kg): 188 mg/dL
creatinine ([6]; 50 mg/kg): 1 mg/dL
RBC count ([7]; 2 weeks): 7 cells/pL
hemoglobin content ([7]; 2 weeks): 13.0 g/dL
platelet count ([7]; 2 weeks): 1687 cells/nL
lymphocyte count ([7]; 2 weeks): 79%
monocyte count ([7]; 2 weeks): 3%
neutrophil count ([7]; 2 weeks): 19%
RBC count ([7]; 4 weeks): 9 cells/pL
hemoglobin content ([7]; 4 weeks): 13.5 g/dL
platelet count ([7]; 4 weeks): 636 cells/nL
lymphocyte count ([7]; 4 weeks): 52%
monocyte count ([7]; 4 weeks): 6%
neutrophil count ([7]; 4 weeks): 43%
RBC count ([7]; 6 weeks): 9 cells/pL
hemoglobin content ([7]; 6 weeks): 13.1 g/dL
platelet count ([7]; 6 weeks): 1004 cells/nL
lymphocyte count ([7]; 6 weeks): 64%
monocyte count ([7]; 6 weeks): 7%
neutrophil count ([7]; 6 weeks): 28%
HCT ([7]; 2 weeks, 50 mg/kg): 48%
MCH ([7]; 2 weeks, 50 mg/kg): 18 pg
MCHC ([7]; 2 weeks, 50 mg/kg): 30%
MCV ([7]; 2 weeks, 50 mg/kg): 59 fL
WBC count ([7]; 2 weeks, 50 mg/kg): 5 cells/nL
MCH ([7]; 4 weeks): 16 pg
WBC count ([7]; 4 weeks): 8 cells/nL
HCT ([7]; 4 weeks, 50 mg/kg): 42%
MCHC ([7]; 4 weeks, 50 mg/kg): 32%
MCV ([7]; 4 weeks, 50 mg/kg): 49 fL
HCT ([7]; 6 weeks, 50 mg/kg): 45%
MCH ([7]; 6 weeks, 50 mg/kg): 16 pg
MCHC ([7]; 6 weeks, 50 mg/kg): 30%
MCV ([7]; 6 weeks, 50 mg/kg): 53 fL
WBC count ([7]; 6 weeks, 50 mg/kg): 9 cells/nL
